Entries after “also recorded” stand apart in the source; their conditions may differ. Marks after values point to notes of the source that are not given here.
Tests used:
[1] = test system: GABA receptor trafficking; experiment: GABA receptor trafficking measured by GABAergic current density (FIG. 14); type: cell-based; settings: measured by the GABAergic current density
From the text: As shown in above examples, not all neurosteroids can modulate GABA receptor trafficking.

[2] = target: T1, α4β3δ GABAA receptors (Homo sapiens, UniProt O14764+P28472+P48169); experiment: Whole-cell patch clamp, potentiation of GABA EC20 currents at recombinant extrasynaptic-type receptors (CHO cells); type: cell-based
T1 construct: expressed in transfected cells; host or cells: CHO cells (transient transfection, Lipofectamine)
T1 sequence (P48169 36-554): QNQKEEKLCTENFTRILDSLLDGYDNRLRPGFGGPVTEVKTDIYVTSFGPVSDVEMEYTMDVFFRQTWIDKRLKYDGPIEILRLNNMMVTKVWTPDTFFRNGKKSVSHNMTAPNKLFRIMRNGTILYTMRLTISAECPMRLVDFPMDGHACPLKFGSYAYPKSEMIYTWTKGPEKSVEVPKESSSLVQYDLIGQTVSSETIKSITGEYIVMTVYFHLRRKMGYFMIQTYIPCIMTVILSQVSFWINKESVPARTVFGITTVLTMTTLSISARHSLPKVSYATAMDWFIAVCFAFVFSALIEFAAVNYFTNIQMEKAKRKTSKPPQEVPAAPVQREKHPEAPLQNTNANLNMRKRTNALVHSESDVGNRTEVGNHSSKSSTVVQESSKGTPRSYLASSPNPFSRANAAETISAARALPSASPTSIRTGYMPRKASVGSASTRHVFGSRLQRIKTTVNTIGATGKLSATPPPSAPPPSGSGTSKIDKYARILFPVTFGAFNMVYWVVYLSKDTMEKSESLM
T1 sequence (P28472 26-473): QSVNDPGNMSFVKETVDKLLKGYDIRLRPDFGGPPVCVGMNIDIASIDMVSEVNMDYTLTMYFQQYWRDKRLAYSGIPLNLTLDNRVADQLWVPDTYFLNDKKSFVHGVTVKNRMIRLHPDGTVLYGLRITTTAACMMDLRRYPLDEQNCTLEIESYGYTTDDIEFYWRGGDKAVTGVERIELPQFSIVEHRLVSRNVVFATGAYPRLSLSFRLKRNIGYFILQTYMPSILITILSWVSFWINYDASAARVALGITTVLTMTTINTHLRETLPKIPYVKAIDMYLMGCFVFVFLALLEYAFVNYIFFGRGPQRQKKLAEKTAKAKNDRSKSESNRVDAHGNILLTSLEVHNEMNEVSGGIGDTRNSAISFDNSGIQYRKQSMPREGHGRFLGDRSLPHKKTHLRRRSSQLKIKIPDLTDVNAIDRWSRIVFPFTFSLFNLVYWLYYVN
T1 sequence (O14764 25-452): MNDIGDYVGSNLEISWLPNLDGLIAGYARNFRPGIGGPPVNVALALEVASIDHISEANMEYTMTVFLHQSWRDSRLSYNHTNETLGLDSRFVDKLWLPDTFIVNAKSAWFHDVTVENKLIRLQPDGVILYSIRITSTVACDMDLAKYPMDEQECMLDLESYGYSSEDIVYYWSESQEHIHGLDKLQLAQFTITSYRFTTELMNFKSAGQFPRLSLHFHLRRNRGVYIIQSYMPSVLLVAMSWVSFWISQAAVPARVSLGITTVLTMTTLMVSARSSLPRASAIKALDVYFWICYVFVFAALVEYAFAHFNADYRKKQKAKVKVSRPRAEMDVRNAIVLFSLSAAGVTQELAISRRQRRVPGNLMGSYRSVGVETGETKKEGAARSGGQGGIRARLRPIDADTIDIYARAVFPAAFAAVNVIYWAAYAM
Experimental: (§1) Cellular electrophysiology was used to measure the pharmacological properties of ALLO, ganaxolone and SGE-516 in heterologous cell systems. Compounds were tested for their ability to affect GABA mediated currents at a submaximal agonist dose (GABA EC20=2 μM).
(§2) LTK cells were stably transfected with the α1β2γ2 subunits of the GABA receptor and CHO cells are transiently transfected with the α4β3γ subunits via the Lipofecatamine method. Cells were passaged at a confluence of about 50-80% and then seeded onto 35 mm sterile culture dishes containing 2 ml culture complete medium without antibiotics or antimycotics. Cells were cultivated at a density that enabled the recording of single cells without visible connections to other cells.
(§3) Whole-cell currents were measured with HEKA EPC-10 amplifiers using PatchMaster software. Bath solution for all experiments contained (in mM): NaCl 137, KCl 4, CaCl2 1.8, MgCl2 1, HEPES 10, D-Glucose 10, pH 7.4 with NaOH. Intracellular (pipette) solution contained (in mM): KCl 130, MgCl2 1, Mg-ATP 5, HEPES 10, EGTA 5, pH 7.2 with KOH. During experiments, cells and solutions were maintained at room temperature (19° C.-30° C.). For manual patchclamp recordings, cell culture dishes were placed on the dish holder of the microscope and continuously perfused (1 ml/min) with bath solution. After formation of a Gigaohm seal between the patch electrode and the cell (pipette resistance range: 2.5 MΩ-6.0MΩ; seal resistance range: >1 GΩ) the cell membrane across the pipette tip was ruptured to assure electrical access to the cell interior (whole-cell patch configuration).
(§4) Cells were voltage-clamped at a holding potential of −80 mV. GABAA receptors were activated by 2 μM GABA and compounds were sequentially applied at increasing concentrations for 30 s prior to a 2 s application of GABA. GABA and compounds were applied to cells via the Dynaflow perfusion system (Cellectricon, Sweden). Test compounds were dissolved in DMSO to form 10 mM stock solution and serially diluted to 0.01, 0.1, 1, and 10 μM in bath solution. […] All concentrations of test compound were tested on each cell. The relative percentage potentiation was defined as the peak amplitude in response to GABA EC20 in the presence of test compound divided by the peak amplitude in response to GABA EC20 alone, multiplied by 100.
(§5) ALLO and ganaxolone are known PAMs of both synaptic and extrasynaptic GABAAR-mediated currents. […] The α1β2γ2 or α4β3δ subunit combinations were chosen as representatives of typical synaptic and extrasynaptic GABAA receptors respectively.

[3] = target: T2, α1β2γ2 GABAA receptors (Homo sapiens, UniProt P14867+P18507+P47870); experiment: Whole-cell patch clamp, potentiation of GABA EC20 currents at recombinant synaptic-type receptors (LTK cells); type: cell-based; settings: n = 3; for EC50: α1β2γ2, GABA EC20 (2 μM)
T2 construct: expressed in transfected cells
T2 sequence (P14867 28-456): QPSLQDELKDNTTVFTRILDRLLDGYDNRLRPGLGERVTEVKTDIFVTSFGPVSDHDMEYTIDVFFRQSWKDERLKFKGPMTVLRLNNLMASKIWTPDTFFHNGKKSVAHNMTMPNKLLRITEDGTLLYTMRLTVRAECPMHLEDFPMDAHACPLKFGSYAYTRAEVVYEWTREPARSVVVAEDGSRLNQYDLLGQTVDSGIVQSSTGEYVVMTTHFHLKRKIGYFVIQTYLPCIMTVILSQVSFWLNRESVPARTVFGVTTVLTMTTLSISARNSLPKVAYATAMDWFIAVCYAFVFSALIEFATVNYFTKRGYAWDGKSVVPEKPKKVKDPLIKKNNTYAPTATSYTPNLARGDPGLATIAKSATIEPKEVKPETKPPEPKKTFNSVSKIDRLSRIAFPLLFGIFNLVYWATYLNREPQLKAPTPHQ
T2 sequence (P47870 25-512 limits assumed): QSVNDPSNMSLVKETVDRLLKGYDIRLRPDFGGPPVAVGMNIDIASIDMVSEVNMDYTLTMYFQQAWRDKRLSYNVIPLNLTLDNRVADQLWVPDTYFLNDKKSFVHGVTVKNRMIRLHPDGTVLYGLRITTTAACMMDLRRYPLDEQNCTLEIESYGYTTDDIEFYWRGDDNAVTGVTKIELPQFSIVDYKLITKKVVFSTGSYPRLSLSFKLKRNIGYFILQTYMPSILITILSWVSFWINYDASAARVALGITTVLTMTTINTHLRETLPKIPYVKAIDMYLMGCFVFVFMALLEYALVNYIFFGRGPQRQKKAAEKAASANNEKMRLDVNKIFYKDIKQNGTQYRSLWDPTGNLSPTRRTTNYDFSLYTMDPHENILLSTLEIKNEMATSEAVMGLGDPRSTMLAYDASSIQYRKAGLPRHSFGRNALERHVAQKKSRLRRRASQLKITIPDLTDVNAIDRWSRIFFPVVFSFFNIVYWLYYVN
T2 sequence (P18507 40-475): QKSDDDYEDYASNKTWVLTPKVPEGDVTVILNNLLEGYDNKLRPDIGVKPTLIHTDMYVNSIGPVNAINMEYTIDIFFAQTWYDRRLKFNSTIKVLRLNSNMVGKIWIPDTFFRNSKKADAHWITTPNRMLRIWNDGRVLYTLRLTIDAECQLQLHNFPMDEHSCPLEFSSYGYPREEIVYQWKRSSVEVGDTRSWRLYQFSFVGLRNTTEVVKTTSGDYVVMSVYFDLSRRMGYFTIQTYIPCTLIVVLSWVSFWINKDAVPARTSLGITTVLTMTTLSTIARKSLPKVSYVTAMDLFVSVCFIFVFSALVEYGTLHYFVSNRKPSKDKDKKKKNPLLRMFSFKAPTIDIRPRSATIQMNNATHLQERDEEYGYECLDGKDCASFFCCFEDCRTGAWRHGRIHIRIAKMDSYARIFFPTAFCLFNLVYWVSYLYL
Experimental: as §1, §2, §3, §4, §5

[4] = test system: tonic current in dentate gyms granule cells (DGGCs); experiment: Sustained (metabotropic) enhancement of tonic current in DGGCs after 15 min exposure and washout; type: cell-based, mice
Experimental: (§6) Brain slices were prepared from 3- to 5-week-old male C57 mice. Mice were anesthetized with isoflurane, decapitated, and brains were rapidly removed and submerged in ice-cold cutting solution containing (mM): 126 NaCl, 2.5 KCl, 0.5 CaCl2, 2 MgCl2, 26 NaHCO3, 1.25 NaH2PO4, 10 glucose, 1.5 sodium pyruvate, and 3 kynurenic acid. Coronal 310 μm thick slices were cut with the vibratome VT1000S (Leica Microsystems, St Louis, Mo., USA). The slices were then transferred into incubation chamber filled with prewarmed (31-32° C.) oxygenated artificial cerebro-spinal fluid (ACSF) of the following composition (in mM): 126 NaCl, 2.5 KCl, 2 CaCl2, 2 MgCl2, 26 NaHCO3, 1.25 NaH2PO4, 10 glucose, 1.5 sodium pyruvate, 1 glutamine, 3 kynurenic acid and 0.005 GABA bubbled with 95% O2-5% CO2. Slices were allowed to recover at 32° C. for at least 1 hr before recording. Exogenous GABA was added in an attempt to standardize ambient GABA in the slice and provide an agonist source for newly inserted extrasynaptic GABAARs.
(§7) After recovery, a single slice was transferred to a submerged, dual perfusion recording chamber (Warner Instruments, Hamden, Conn., USA) on the stage of an upright microscope (Nikon FN-1) with a 40× water immersion objective equipped with DIC/IR optics. Slices were maintained at 32° C. and gravity-superfused with ACSF solution throughout experimentation and perfused at rate of 2 ml/min with oxygenated (O2/CO2 95/5%) ACSF.
(§8) Whole-cell currents were recorded from the dentate gyms granule cells (DGGCs) in 310-μm-thick coronal hippocampal slices. Patch pipettes (5-7MΩ) were pulled from borosilicate glass (World Precision Instruments) and filled with intracellular solution of the composition (in mM) as follows: 140 CsCl, 1 MgCl2, 0.1 EGTA, 10 HEPES, 2 Mg-ATP, 4 NaCl and 0.3 Na-GTP (pH=7.2 with CsOH). A 5 min period for stabilization after obtaining the whole-cell recording conformation (holding potential of −60 mV) was allowed before currents were recorded using an Axopatch 200B amplifier (Molecular Devices), low-pass filtered at 2 kHz, digitized at 20 kHz (Digidata 1440A; Molecular Devices), and stored for offline analysis.
(§9) For tonic current measurements, an all-points histogram was plotted for a 10 s period before and during 100 μM picrotoxin application, once the response reached a plateau level. Recordings with unstable baselines were discarded. Fitting the histogram with a Gaussian distribution gave the mean baseline current amplitude and the difference between the amplitudes before and during picrotoxin was considered to be the tonic current. The negative section of the all-points histogram which corresponds to the inward IPSCs was not fitted with a Gaussian distribution (Kretschmannova et al., 2013; Nusser and Mody, 2002). Series resistance and whole-cell capacitance were continually monitored and compensated throughout the course of the experiment. Recordings were eliminated from data analysis if series resistance increased by >20%. Spontaneous inhibitory post-synaptic currents (sIPSCs) were analyzed using the mini-analysis software (version 5.6.4; Synaptosoft, Decatur, Ga.). Minimum threshold detection was set to 3 times the value of baseline noise signal. To assess sIPSC kinetics, the recording trace was visually inspected and only events with a stable baseline, sharp rising phase, and single peak were used to negate artifacts due to event summation. Only recordings with a minimum of 200 events fitting these criteria were analyzed. sIPSCs amplitude, and frequency from each experimental condition was pooled and expressed as mean±SEM. To measure sIPSC decay, 100 consecutive events were averaged and the decay was fitted to a double exponential and the weighted decay constant (tw) was determined. Statistical analysis was performed by using Student t-test (paired and unpaired where appropriate), where p<0.05 is considered significant.

[5] = test system: tonic current in dentate gyms granule cells (DGGCs); experiment: Acute (allosteric) modulation of tonic current in DGGCs of hippocampal slices; type: cell-based, mice; settings: 100 nM, 10 min acute exposure, then 100 μM picrotoxin; mean±SEM
Experimental: as §6, with “GABAARs. […]” for “GABAARs.”
Whole-cell currents were recorded from the dentate gyms granule cells (DGGCs) in 310-μm-thick coronal hippocampal slices. […] A 5 min period for stabilization after obtaining the whole-cell recording conformation (holding potential of −60 mV) was allowed before currents were recorded using an Axopatch 200B amplifier (Molecular Devices), low-pass filtered at 2 kHz, digitized at 20 kHz (Digidata 1440A; Molecular Devices), and stored for offline analysis.
For tonic current measurements, an all-points histogram was plotted for a 10 s period before and during 100 μM picrotoxin application, once the response reached a plateau level. […] Series resistance and whole-cell capacitance were continually monitored and compensated throughout the course of the experiment. […] Spontaneous inhibitory post-synaptic currents (sIPSCs) were analyzed using the mini-analysis software (version 5.6.4; Synaptosoft, Decatur, Ga.). […] Only recordings with a minimum of 200 events fitting these criteria were analyzed. sIPSCs amplitude, and frequency from each experimental condition was pooled and expressed as mean±SEM. […]

[6] = test system: sIPSCs in dentate gyms granule cells (DGGCs); experiment: Acute (allosteric) modulation of sIPSCs in DGGCs of hippocampal slices; type: cell-based, mice
Experimental: as §6, §7, §8, §9

[7] = test system: GABAA receptor β3 subunit S408/9 phosphorylation; experiment: Immunoblot of β3 S408/9 phosphorylation in hippocampal slices; type: cell-based, mice; settings: 100 nM
Experimental: Hippocampi were dissected out of acute slices from 8 to 12 week old C57/B16 mice and lysed with phosphate buffer including: 20 mM Tris-HCl, 150 mM NaCl, 5 mM EDTA, 10 mM NaF, 2 mM Na3VO4, 10 mM pyrophosphate, 0.1% SDS and 1% Triton after drug treatment. The β3 subunit was isolated using immunoprecipitation with β3 antibodies, after correction for protein content and the specific activity of labeling. Results were attained by SDS/PAGE followed by autoradiography (Abramian et al., 2010). For biotinylation experiments hippocampi were dissected out of acute slices from 8 to 12 week old C57/B16 mice and incubated in artificial cerebrospinal fluid (ACSF) described above at 30° C. for 1 h for recovery before experimentation. Slices were then placed on ice and incubated for 30 min with 1 mg/mL NHS-SS-biotin (Pierce). Excess biotin was removed by a 50 mM glycine quenching buffer, followed by washing of slices three times in ice-cold ACSF. The tissue was snap frozen on dry ice for 5 min, thawed at 4° C. and lysed. The lysates were solubilized with 2% Triton at 4° C. on a rotating wheel for 1 h. The insoluble material was removed by centrifugation, and 350-500 μg of protein lysate were incubated with NeutrAvidin beads (Pierce) for 18-24 h at 4° C. Bound material was eluted with sample buffer and subjected to SDS/PAGE and then immunoblotted with the indicated antibodies. Blots were then quantified using the CCD-based ChemiDoc XRS ? system. Antibodies against the β3 subunit and the phospho-β3 antibody were generated and verified by the laboratory of S.J.M. (Vien et al., 2015).
To produce antibodies specific for phosphorylated S443, rabbits were injected with a synthetic peptide corresponding to residues […] of the murine α4 subunit in which the serine residue corresponding to S443 was chemically phosphorylated; […]. Hippocampal slices were treated with vehicle (Con), or SGE-516 for 20 min. Slices were immunoblotted with pS408/9, β3, or actin antibodies. The ratio of pS408/9/β3 immunoreactivity was then normalized to control slices (100%=the line).
Hippocampal slices were treated with 100 nM ALLO or P4 (progesterone), and S408/9 phosphorylation was then determined as detailed above, n=4 slices (FIG. 18D). Hippocampal slices were treated with 100 nM ORG (FIG. 18E). S408/9 phosphorylation was examined using immunoblotting.

[8] = test system: GT1-7 cells (co-express mPRα and GABAARs), β3 S408/9 phosphorylation; experiment: Immunoblot of β3 S408/9 phosphorylation in GT1-7 cells; type: cell-based; settings: 100 nM, 15 min; n=6
Experimental: GT1-7 cells that co-express mPRα and GABAARs were used to measure the level of phosphorylation at S408/9 position of β3 subunit. Quantitative PCR analysis indicated the enrichment of the mPRα mRNA in GT1-7 cells (FIG. 15A upper, figure taken from Thomas and Pang 2012). Expression of mPRα was confirmed using western blotting. 10 and 15 μg of SDS-soluble extracts from GT1-7 cells were immunoblotted with an mPRα specific antibody (FIG. 15A lower).
GT1-7 cells were treated with 100 nM AllO or P4 for 15 min and immunoblotted with antibodies specifically recognizing β3, actin, and […] β3 subunit (pS408/9). The ratio of pS408/9 β3 subunit immunoreactivity were then normalized to levels seen in vehicle treated to controls, n=6.

[9] = test system: tonic current in dentate gyms granule cells (DGGCs); settings: Abramian et al., 2010, 2014; cited from earlier work
[10] = 100 nM acute exposure, n = 5 to 7 neurons

CC(=O)[C@H]1CC[C@H]2[C@@H]3CC[C@H]4C[C@](C)(O)CC[C@]4(C)[C@H]3CC[C@]12C [Ganaxolone]
modulation of GABA receptor trafficking [1]: did not modulate GABA receptor trafficking | EC50 [2]: 94 nM | Emax ([2]; CHO, relative percentage potentiation of GABA EC20 peak current, n = 3, read-out: Emax ± S.E.M., α4β3δ): 225% | Emax ± S.E.M., α4β3δ ([2]; relative percentage potentiation of GABA EC20 peak current, n = 3): 225 ± 8% | EC50 ([3]; EC50, potentiation of GABA current): 256 nM | EC50 ([3]; pEC50 ± S.E.M.): 158 nM | Emax ± S.E.M., α1β2γ2 ([3]; relative percentage potentiation of GABA EC20 peak current): 400 ± 27% | tonic current after exposure and washout ([4]; 1 μM, 15 min incubation, 30-60 min wash, vehicle 43.9±5.7 pA): 57.4±6.3 pA | change of tonic current versus vehicle ([4]; 1 μM, 15 min incubation, wash): did not significantly alter; also recorded: No significant change | tonic current during acute exposure [5]: 78.8±23.2 pA | mean sIPSC amplitude before versus during exposure ([6]; 100 nM): no significant difference | mean sIPSC decay time in the presence of compound ([6]; 100 nM): significantly increased | sIPSC Amplitude [6, 10]: 55.1 ± 0.7 pA | sIPSC Decay [6, 10]: 23.6 ± 2.9^c ms | sIPSC Frequency [6, 10]: 5.6 ± 1.7 Hz

CC(=O)[C@H]1CC[C@H]2[C@@H]3CCC4=CC(=O)CC[C@]4(C)[C@H]3CC[C@]12C [P4, Progesterone]
S408/9 phosphorylation in hippocampal slices [7]: regulated | S408/9 phosphorylation (pS408/9/β3) in GT1-7 cells [8]: increase | amplitude and density of GABAergic tonic current at varying doses ([4]; protocol as in FIG. 3, n=6-8 cells): dosage-dependent effect; also recorded: dosage dependent effect

C[C@@]1(O)CC[C@H]2[C@H](CC[C@@H]3[C@@H]2CC[C@]2(C)[C@@H](C(=O)Cn4cc(C#N)cn4)CC[C@@H]32)C1 [SAGE-217]
modulation of GABA receptor trafficking [1]: modulated GABA receptor trafficking

C[C@]12CC[C@@H](O)C[C@H]1CC[C@@H]1[C@@H]2CC[C@]2(C)[C@@H](C(=O)CO)CC[C@@H]12 [THDOC, Tetrahydrodeoxy- corticosterone]
sustained effects on GABAergic tonic current [9]: long lasting increase

CN1C(=O)CN=C(c2ccccc2)c2cc(Cl)ccc21 [diazepam]
effect on GABA evoked currents in α4β3δ receptors ([2]; data not shown): did not alter | Emax ([3]; LTK, relative percentage potentiation of GABA EC20 peak current, read-out: Emax ± S.E.M., α1β2γ2): 184%
